Legend:
[1] = tested on: KFtx cells; type: in vivo, BALB/cAJcl-nu/nu mice; details: KFTx cell-derived tumors; 7 days after Paclitaxel 1 mg/ml/mouse
[2] = tested on: Low cells; type: in vivo, BALB/cAJcl-nu/nu mice; details: KF cell-derived tumors (Low group); 7 days after Paclitaxel 1 mg/ml/mouse
[3] = tested on: KFtx series; experiment: Paclitaxel resistance properties of the KFtx series (surviving cells, Cell Titer-Glo); type: cell-based; details: Low and Empty Low (low UCA1 expression); PTx 0 to 500 nM, 48 hours
Description: Paclitaxel resistance properties of the KFtx series comprising the cell line stably expressing UCA1 were compared. The KFtx series were seeded at a cell density of 6×10^3/well on a 96-well plate, and after the cells had been cultured at 37° C. for 12 hours, during which the cells were considered to adhere to the plate, the medium was exchanged with PTx-containing RPMI. The concentrations of PTx were set to be 0, 2, 5, 20, 50, 100, 200, and 500 nM. The cells were further cultured at 37° C. for 48 hours, and the number of surviving cells was then quantified using Cell Titer-Glo (Promega) and was then compared.

Structure (SMILES): CC(=O)O[C@H]1C(=O)[C@@]2(C)[C@H]([C@H](OC(=O)c3ccccc3)[C@]3(O)C[C@H](OC(=O)[C@H](O)[C@@H](NC(=O)c4ccccc4)c4ccccc4)C(C)=C1C3(C)C)[C@]1(OC(C)=O)CO[C@@H]1C[C@@H]2O [PTx, Paclitaxel]
- tumors after administration of PTx (Rluc imaging) [1]: remained
- tumors disappeared (Rluc imaging) [2]: ≥ 95%
- number of surviving cells [3]: significantly decreased

Reference: patent US10370647B2 (priority 2015, dated 2019)
